Data from patent US7264947B2, “Activity dependent neurotrophic factor III (ADNF III)” (United States of America, as represented by the Secretary …, priority 1997, dated 2007).
Read-outs that look alike come from different tables or passages of the source.

Key:
[1] = tested on: choline acetyl transferase; test: brain ChAT (choline acetyl transferase) activity in ApoE-deficient mice; assay type: in vivo; settings: daily subcutaneous injections from birth to 14 days, measured at 21 days
Description: The graph depicts incorporation of radio-labeled choline into acetylcholine. Experiments were conducted as described. Apo-E deficient mice are designated: ApoE; 100% activity in the control (C57B6) mice indicated 669758.4 pmole/mg protein/min. As the experiments were repeated 3-5 times the results were standardized against the control calibrated at 100% per each experiment. ApoE-deficient mice daily injected with peptides are designated ADNF-14, ADNF-9, and NAP, respectively.
ChAT activity was measured according to published procedures (Formum et al., Neurochem. 24:407-409 (1975)). Brains were homogenized with 10 volumes of 50 mM phosphate buffer containing 300 mM NaCl, 20 mM EDTA, and 0.5% triton. The homogenates were centrifuged at 12,000×g for 15 min., and […] of supernatant was mixed with […] of a solution of […] ^14C-acetyl CoA ([…] NEN), 20 mM acetylcholine, 1.6 mM choline chloride, 0.25 mM eserine, and phosphate buffer. Incubation was 15 min. at 37° C. The reaction was terminated and radioactivity was measured in a beta-counter. • 21. Apolipoprotein E (ApoE) Deficient Mouse Model
(§1) ApoE knockout mice and normal controls were a gift from the late Prof. Shlomo Eisenberg of Tel Aviv University, originally provided by Dr. J. L. Breslow (Plump et al., Cell 71:343-353 (1992)). The ApoE knockout mice were obtained from embryonic stem cells OLA 129 in C57B6×FVB mice (as described). Age-matched controls were inbred C57B6 mice. Groups of mouse pups were treated from birth until the age of 14 days. Daily subcutaneous injections included: […] saline (days 1 through 4), […] saline (days 5 through 10) and […] saline (days 11-14).
ChAT activity was measured according to published procedures (Formum et al., Neurochem. 24:407-409 (1975)).

ApoE-deficient mice = test: developmental milestones (placing response, cliff avoidance) in ApoE-deficient mice; assay type: in vivo; settings: for acquisition of the placing response and the cliff avoidance response: daily injection; for marked improvement of placing response at the first day of treatment: tested 60 min. after injection
Description: Animals (15-37 per experimental group, 5-8 per litter) were submitted to placing response assays daily following injection of: 1. saline (open circles, C57B6 mice=control, n=37, closed circles, ApoE deficient=ApoE, n=22). Experiments were repeated three times. Score indicates: 0=no reaction, 1=time to acquire a response shorter than 15 seconds; 2=time to acquire a response shorter than 10 seconds; 3=time to acquire a response shorter than 5 seconds. Age (days) indicate: the age of the tested animals in days. Results are mean±SEM.
as §1
Developmental milestones were measured using at least three dams with […] each for every experimental point. All observations were made between 12 noon and 4 pm. From day one through day six, mice were weighed and tested 60 min. after the daily injection. Placing is a behavioral parameter that is measured as the time elapsing between contact of the foot against the edge of an object and its placing on the top of the same object.
Further measurements in the Apo-E-deficient mouse included assessments of the time of onset of developmental milestones of behavior. […] A significant difference was observed among the treatment groups on the first day of testing (P<0.0001), with inbred C57B6 mice developing faster than the ApoE-deficient animals. […] NAP-treated animals were the fastest.

[2] = tested on: cerebral cortical cultures; assay type: cell-based, newborn rats; settings: for dilutions giving significant neuroprotection against tetrodotoxin: dilutions of a 1 mg/ml protein solution (E. coli extract) in PBS, 1 μM tetrodotoxin, five days
ADNF III mRNA = test: mimic polymerase chain reaction of ADNF III mRNA in mouse embryos incubated in vitro; assay type: cell-based; settings: 9.5-day-old mouse embryos incubated in vitro for four hours, ratio with cyclophilin mRNA
astrocytes = test: western blot of secreted ADNF-like immunoreactivity in astrocyte conditioned medium; assay type: cell-based, rat
Description: FIGS. 4A-B. FIG. 4A illustrates the western blot hybridization for immunological detection of the cloned ADNF III protein from bacterial extracts. Bacterial extracts expressing clone p25 were subjected to 10% SDS-polyacrylamide gel electrophoresis followed by western blot analysis with the antibodies used for cloning. […] CBB=Coomassie Brilliant Blue (protein) staining of the same lanes that were subjected western blot analysis. […] FIG. 4B illustrates immunological identification of a secreted ADNF III protein in astrocyte conditioned medium. Astrocyte-conditioned medium was prepared as described supra (see Brenneman & Gozes, J. Clin. Invest. 97:[…] (1996)), with a protein of a high molecular weight identified as the ADNF III molecule by western blot hybridization. SDS-polyacrylamide gel electrophoresis was performed as indicated in the above cited paper. Astroglial cultures obtained from newborn rat cerebral cortex were utilized. Cell extracts and conditioned medium from astrocytes that were treated or untreated with VIP (+, −) were subjected to electrophoresis through 10% polyacrylamide slab gel containing 0.1% SDS. Western blot analysis was performed with antibodies utilized for the cloning (anti-SALLRSIPA=α1).
a. Astrocytes: Astrocytes were prepared from 1-day-old (Sprague-Dawley) rats. […]

[3] = tested on: cerebral cortical cultures; test: neuroprotection against β-amyloid peptide (25-35) neurotoxicity in cerebral cortical cultures; assay type: cell-based, newborn rats; settings: dilutions of a 1 mg/ml protein solution (E. coli extract) in PBS, 25 μM β-amyloid fragment 25-35, five days
neuronal cell death = test: neuroprotective effects of ADNF III (summary statement); assay type: cell-based
Description: The present invention relates to the discovery of a nucleic acid encoding a novel neuroprotective polypeptide, i.e., Activity Dependent Neurotrophic Factor III (ADNF III), also called Activity Dependent Neuroprotective Protein (ADNP). […] Based on the recognized homology between ADNF I and hsp60, a heat shock protein, and PIF1, a DNA repair protein, these two epitopes were utilized to prepare antibodies which, in turn, were used to screen a mouse cDNA-expression library to identify the new neuroprotective polypeptide ADNF III. One mouse ADNF III cDNA clone consists of about 2418 base pairs of an open reading frame, which encodes an ADNF III polypeptide of about 806 amino acids, pI 5.85 (nucleotide sequence, SEQ ID NO:4; amino acid sequence, SEQ ID NO:3, see FIG. 1). An additional mouse cDNA has been cloned, encoding an ADNF III polypeptide of about 828 amino acids, pI 5.99 (nucleotide sequence, SEQ ID NO:54; amino acid sequence, SEQ ID NO:55; see FIG. 11). Human cDNAs encoding ADNF III have also been cloned (“H3” nucleotide sequence, SEQ ID NO:2; “H3” amino acid sequence, SEQ ID NO:1; “H3” nucleotide sequence, SEQ ID NO:56 and FIG. 12; “H3” amino acid sequence, SEQ ID NO:57 and FIG. 12; “H7” nucleotide sequence, SEQ ID NO:58 and FIG. 13; and “H7” amino acid sequence, SEQ ID NO:59 and FIG. 13). […] The promoter sequence for ADNF III has also been cloned (SEQ ID NO:60 and FIG. 14).

VLGGGSALLRSIPA [ADNF-14]
brain ChAT activity compared with vehicle-treated or untreated ApoE-deficient mice [1]: did not significantly improve
level of performance reached in placing response (ApoE-deficient mice): never reached the level of performance of the NAP or ADNF-9 animals
day on which a significant difference between treated and untreated animals began to appear (placing response) (ApoE-deficient mice; P<0.05): third postnatal day
acquisition of the placing response and the cliff avoidance response (ApoE-deficient mice): showed acceleration
marked improvement of placing response at the first day of treatment (ApoE-deficient mice): not

SALLRSIPA [ADNF-9]
brain ChAT activity compared with vehicle-treated or untreated ApoE-deficient mice [1]: did not significantly improve
placing response from the second postnatal day onwards (ApoE-deficient mice; P<0.0001): best performers
acquisition of the placing response and the cliff avoidance response (ApoE-deficient mice): showed acceleration
marked improvement of placing response at the first day of treatment (ApoE-deficient mice): marked improvement

SVRLGLGGNAPVSIPQQS [reference compound]
neuroprotection (in words) ([2]; FIG. 6A/6B, toxin for the control curves not stated): inactive

VIP: 28-amino acid peptide, secretagogue for ADNF
increase in ADNF III mRNA (ADNF III mRNA): two-fold
increase in the secreted 60 KD ADNF-like immunoreactivity (astrocytes): up to 2 fold

B1: clone 25: full length ADNF III expressed from clone 25, tested as E. coli protein extract (protein)
chain: MVNRLSIPKPNLNSTGVNMMSNVHLQQNNYGVKSVGQSYGVGQSVRLGLGGNAPVSIPQQSQSVKQLLPSGNGRSFGLGAEQRPPAAARYSLQTANTSLPPGQVKSPSVSQSQASRVLGQSSSKPPPAATGPPPSNHCATQKWKICTICNELFPENVYSVHFEKEHKAEKVPAVANYIMKIHNFTSKCLYCNRYLPTDTLLNHMLIHGLSCPYCRSTFNDVEKMAAHMRMVHIDEEMGPKTDSTLSFDLTLQQGSHTNIHLLVTTYNLRDAPAESVAYHAQNNAPVPPKPQPKVQEKADVPVKSSPQAAVPYKKDVGKTLCPLCFSILKGPISDALAHHLRERHQVIQTVHPVEKKLTYKCIHCLGVYTSNMTASTITLHLVHCRGVGKTQNGQDKTNAPSRLNQSPGLAPVKRTYEQMEFPLLKKRKLEEDADSPSCFEEKPEEPVVLALDPKGHEDDSYEARKSFLTKYFNKQPYPTRREIEKLAASLWLWKSDIASHFSNKRKKCVRDCEKYKPGVLLGFNMKELNKVKHEMDFDAEWLFENHDEKDSRVNASKTVDKKHNLGKEDDSFSDSFEHLEEESNGSGSPFDPVFEVEPKIPSDNLEEPVPKVIPEGALESEKLDQKEEEEEEEEEDGSKYETIHLTEEPAKLMHDASDSEVDQDDVVEWKDGASPSESGPGSQQISDFEDNTCEMKPGTWSDESSQSEDARSSKPAAKKKATVQDDTEQLKWKNSSYGKVEGFWSKDQSQWENASENAERLPNPQIEWQNSTIDSEDGEQFDSMTDGVADPMHGSLTGVKLSSQQA
modifications: left off: large carriers
notes: full length ADNF III expressed from clone 25, tested as E. coli protein extract
dilutions giving significant neuroprotection against tetrodotoxin [2]: 10^−15-10^−13
dilutions giving significant neuroprotection against tetrodotoxin ([2]; listed as clone p25): 10^−14
dilutions giving significant neuroprotection against β-amyloid [3]: > 10^−15
dilutions giving significant neuroprotection against β-amyloid ([3]; listed as clone p25): 10^−14
EC50 of neuroprotective effects (neuronal cell death): in the femtomolar range
